Reference: patent US9594047B2, “Potentiometric sensors and method for measuring intermolecular interactions” (Universiteit Antwerpen, priority 2013, dated 2017)

How the values were obtained:
[1] = Potentiometric FIA sensorgram, linearization method, rubber phase (PVC) coated sensor; type: binding; conditions: for koff: from plot of slope versus canalyte (on phase kinetics); for kon: from plot of slope versus canalyte, eluent 5.0 mM H3PO4 pH 2.4
Text: The model is based on the assumption that the rate determining phenomenon is the adsorption of analyte A (second molecular species) to the surface receptor sites Rsurface: A+Rsurface⇄ARsurface (5) Receptor sites are occupied by the analyte are designated as Roccupied. The rate of adsorption can be expressed as νon: […]
Differential equation 6 can be solved to yield equations 8 and 10. In these equations, Roccupied is replaced by R, the concentration-related response (10^mV/S−1), as both are linearly related (see above). Rmax is the value of R which is obtained at the plateau of the sensorgram: R(t)=Rmax(1−e^−k^obsd^t) (8) where kobsd=[…] (9) Equation 7 yields the well-known first-order exponential desorption formula: R(t)=Rmaxe^−k^off^t (10)
(§1) [formula] Starting from the “association” part of the sensorgram, one can now plot dR/dt versus R. For a pseudo-first-order kinetics, this will yield a straight line with slope equal to slope=−(koncanalyte+koff) (12) Plotting this slope versus canalyte then yields a graph from which kon and koff can be calculated.
(§2) From kon and koff, Kassoc=kon/koff is obtained, from which Kdiss (=1/Kassoc) and the Gibbs free energy of interaction can be calculated (ΔG^0=−RT ln Kass). Kdiss is most frequently used term to express intermolecular interactions. This type of analysis was done for different electrode/analyte combinations. Examples were chosen so as to include examples where the immobilized component (in the coating layer of the sensor) includes large biomolecules (DNA).
(§3) The flow injection analysis (FIA) recordings were performed using an LC-10ADvp pump (Shimadzu Liquid Chromatography) and a Rheodyne 7125 six-port external sample injector (VICI, Houston, Tex.). A 1.00 mL sample loop was used to generate square concentration pulses for sensorgram recording in FIA conditions. […] The flow rate was 1.00 mL min^−1. Poiseuille peak broadening effects were kept to a minimum using short injector-detector connections (150 mm). To avoid such effects at the end of the square concentration pulse, the injector was switched from inject to load after 40 s (well before the sample loop volume was totally emptied).
The eluent was 5.0 mM H3PO4 (pH 2.4) for the poly(vinyl chloride) (PVC)-based electrodes and 0.5 mM 4-(2-hydroxyethyl)-1-piperazine-ethanesulfonic acid (HEPES; pH 6.0) for the hydrogel electrodes (see the section “Potentiometric Electrode”). The column outlet was directed perpendicularly toward the sensitive membrane of the coated wire electrode in a “wall-jet” flow cell [see FIG. 1 and Bazylak, G.; Nagels, L. J. J. Pharm. Biomed. Anal. 32 (2003) 887-903]. The distance from the LC tubing outlet to the electrode was 0.100 mm unless otherwise stated.
The membrane potential was measured against an Orion 800500 Ross reference electrode (Ag/AgCl) using a high impedance (10^13Ω) home-made amplifier. The detection signals were recorded on a data station composed of a PC equipped with a 6013 NI DA converter and LabVIEW 7 (National Instruments, Austin, Tex.) based software. The overall RC time constant of the high-impedance amplifier plus data station was set to 0.200 s.
Electrodes with a composite substrate have the important property that the membrane coating and the composite are tightly mixed at the interface, and sensors constructed in this way show very good impedance characteristics (see Nagels, L; Bohets, H.; Jimidar, M. U.S. Pat. No. 7,857,962 B2). These characteristics were verified using impedance spectroscopy. The measurements were performed with an Autolab Metrohm PGSTAT 128N FRA instrument (frequency 1-100 kHz, amplitude 10 mV). A semicircle in the Nyquist plot was obtained if the electrode had good impedance characteristics. Discussions on such characteristics of potentiometric sensors are well described in Mattinen, U.; Rabiej, S.; Lewenstam, A.; Bobacka, J. Electrochim. Acta 56 (2011) 10683-10687; and Bobacka, J.; Ivaska, A.; Lewenstam, A. Chem. Rev. 108 (2008) 329-351. […]

[2] = system: DA-specific aptamer (58 mer); assay: Potentiometric FIA sensorgram, gelatin B sensor with covalently linked DA-specific aptamer; type: binding; conditions: for Rmax response in mV: 10^−5M injection, coating Gelatin B + DA-specific aptamer; for change in sensitivity (Rmax) when aptamer is coupled to gelatin B: with versus without aptamer
Text: as §1, §2, §3
The well-known ethyl-dimethyl-aminopropylcarbodiimide and n-hydroxy-succinimide (EDC-NHS) coupling procedure was used (with minor modifications) to bind the aminated aptamer covalently to the hydrogel, which contains carboxyl groups. After adding 20 μL of the coupling agents (15.32 mg of EDC and 2.32 mg of NHS dissolved in 100 μl of 10.0 mM MES buffer at pH 7.0) to the coated hydrogel for 2 h, 2×4 μL of the aptamer (10^−4M) was applied for 1 h. After evaporation for 2 h, at 4° C. the electrodes were kept in 10.0 mM MES running buffer, pH 7.0.
All chemicals were of analytical reagent grade. The FIA eluents were prepared daily by the dilution of a concentrated phosphoric acid solution or by dissolving HEPES, both obtained from Acros Organics (Filter Service NV, Eupen, Belgium). High-molecular-mass PVC was obtained from Janssen Chimica (Beerse, Belgium). The other membrane components were of the highest quality grade available from Fluka (Sigma-Aldrich, Bornem, Belgium). These include plasticizer TCPB, DOS, and the solvent tetrahydrofuran (THF). Type gelatin A (IEP (isoelectric point)=8.8, bloom strength 202), isolated from porcine skin by acid treatment, was obtained from Tessenderlo Chemie (Belgium). Promazine, lidocaine and tartaric acid were obtained from Sigma-Aldrich.
After checking the coupling of the aptamer to the biopolymer as described above, the electrodes were placed in a FIA potentiometric setup.
(§4) A R=10^mV/S−1 conversion was then plotted (see equation 4). […] Four electrodes were tested, each 3 injections.

Gelatin B = assay: Potentiometric FIA response on gelatin B-coated electrode without aptamer (negative control sensor); type: binding; conditions: for Rmax response in mV: 10^−5M injection, coating Gelatin B
Procedure: as §4

DA-specific aptamer = conditions: read-out: Kdiss determined colorimetrically; Zheng (2011); cited from earlier work
[3] = Potentiometric sensorgram of an oligonucleotide analyte; conditions: 10^−5 M injection
Text: Coating materials such as gelatin are easily doped by proteins [see De Wael, K.; De Belder, S.; Van Vlierberghe, S.; Van Steenberge, G.; Dubruel, P. Talanta 82 (2010) 1980-1985] antibodies, bioparticles (viruses, bacteria, . . . ), DNA, and aptamers. Large biomolecules can be used as analyte (prey ligand) (second molecular species). From experience with oligonucleotides [Nagels, L. J.; Everaert, J.; Bohets, H.; Del Favero, J.; Goossens, D.; Robbens, J.; Pietraszkiewicz, M.; Pietraszkiewicz, O., Comb. Chem. High Throughput Screening 10 (2007) 555-559] it is known that these multiply charged molecules give very good potentiometric responses. For example, the 22-mer 5′-[…]-3′ yields a slope (S, equations 2 and 3) value of 38 mV per decade, which is much higher than that calculated by the Nernst equation (equation 2). This is due to the fact that equation 2 was derived for point charges, while an oligonucleotide is a multiply charged rodlike molecule. It is detected three times more sensitively (on a molar basis) than a small, well-responding anionic molecule such as maleic acid. […] This means that the described method can also be used to measure DNA/DNA interactions. Potentiometry also allows working with miniaturized electrode arrays (eventually with ion-sensitive field-effect transistor (ISFET) readout), which means that high-throughput measurements can be considered.

[4] = system: gelatin A coating (collagen material); assay: Potentiometric FIA sensorgram, linearization method, gelatin A-coated sensor; type: binding, porcine
Text: as §1, §2
as §3, with “To avoid such effects at the end of the square concentration pulse, the injector was switched from inject to load after 40 s (well before the sample loop volume was totally emptied).” left out

[5] = cited from earlier work

## CCN(CC)CC(=O)Nc1c(C)cccc1C [Lidocaine, lidocaine]
[1]
  Kassoc=kon/koff: 275000 M⁻¹
  koff: 0.0717 s⁻¹
  kon: 19700 M⁻¹ s⁻¹
[1]; off phase, all curves at different concentrations
  average value of koff: 0.0748 s⁻¹
[2]
  Rmax response in mV: 1.57 mV
  change in sensitivity (Rmax) when aptamer is coupled to gelatin B: no improvement in sensitivity
Gelatin B
  sensitivity of gelatin B based sensors: quite insensitive
  Rmax response in mV: 2.88 mV

## CC(NCCc1ccc(O)cc1)C(O)c1ccc(O)cc1 (stereo not drawn) [Ritodrine, ritodrine]
[2]
  Rmax response in mV: 1.57 mV
  change in sensitivity (Rmax) when aptamer is coupled to gelatin B: no improvement in sensitivity
Gelatin B
  sensitivity of gelatin B based sensors: quite insensitive
  Rmax response in mV: 1.83 mV

## NCCc1ccc(O)c(O)c1 [Dopamine, dopamine]
[2]
  Kass: 3.04e+07 M⁻¹
  koff: 0.0007 s⁻¹
  kon: 21200 M⁻¹ s⁻¹
  Rmax response in mV: 92.86 mV
  change in sensitivity (Rmax) when aptamer is coupled to gelatin B: very clear increase in Rmax
[2]; four electrodes, each 3 injections
  signal (Rmax) with aptamer-containing electrodes versus electrodes without aptamer: From five to ten times higher signals
[2]; mean of four electrodes, read-out: mean value of Kdiss
  Kd: 1310 nM
Gelatin B
  Rmax response in mV: 9.46 mV
DA-specific aptamer
  Kd: 700 nM

## 5′-AAAATATCATCTTTGGTGTTTC-3′ (chemistry not given here) [22-mer oligonucleotide used as analyte]
[3]; off phase
  koff: 0.032 s⁻¹
[3]; on phase
  kobsd: 0.055 s⁻¹

## O=C(O)C(O)C(O)C(=O)O (stereo not drawn) [tartaric acid]
[4]
  koff: 0.0472 s⁻¹
[4]; from plot of slope versus canalyte, 0.5 mM HEPES pH 6.0
  kon: 66700 M⁻¹ s⁻¹

## CN(C)CCCN1c2ccccc2Sc2ccccc21 [Promazine]
[1]
  Kassoc=kon/koff: 2.74e+06 M⁻¹
  koff: 0.0365 s⁻¹
  kon: 100000 M⁻¹ s⁻¹
[2]
  Rmax response in mV: 2.44 mV
  change in sensitivity (Rmax) when aptamer is coupled to gelatin B: no improvement in sensitivity
Gelatin B
  sensitivity of gelatin B based sensors: quite insensitive
  Rmax response in mV: 3.66 mV
[5]
  log P: 4.36
